Laboratory results from patent publication US8906930B2, “Quinazoline derivatives” (Merck Patent GmbH, priority 2009, dated 2014).

target: T1, Recombinant human HSP90α (Homo sapiens, UniProt P07900); experiment: HSP90 radioligand filter binding test ([3H]17AAG competition); settings: radioligand [3H]17AAG 0.08 μM; HSP90 1.5 μg/assay; 22° C., 30 min; read-out: HSP90 inhibition IC50
T1 construct: host or cells: E. coli
Excerpt: The binding of geldanamycin or 17-allylamino-17-demethoxygeldanamycin (17AAG) to HSP90 and competitive inhibition thereof can be utilised in order to determine the inhibitory activity of the compounds according to the invention (Carreras et al. 2003, Chiosis et al. 2002).
In the specific case, a radioligand filter binding test is used. The radioligand used here is tritium-labelled 17-allylaminogeldanamycin, [3H]17AAG. This filter binding test allows a targeted search for inhibitors which interfere with the ATP binding site.
Recombinant human HSP90α (E. coli expressed, 95% purity);
[3H]17AAG (17-allylaminogeldanamycin, [allylamino-2,3-^3H. Specific activity: 1.11×10^12 Bq/mmol (Moravek, MT-1717);
HEPES filter buffer (50 mM HEPES, pH 7.0, 5 mM MgCl2, BSA 0.01%) Multiscreen FB (1 μm) filter plate (Millipore, MAFBNOB 50).
The 96-well microtitre filter plates are firstly irrigated and coated with 0.1% of polyethylenimine.
The test is carried out under the following conditions:
Reaction temperature 22° C.
Reaction time: 30 min., shaking at 800 rpm
50 mM HEPES HCl, pH 7.0, 5 mM MgCl2, 0.01% (w/v) of BSA
At the end of the reaction, the supernatant in the filter plate is removed by suction with the aid of a vacuum manifold (Multiscreen Separation System, Millipore), and the filter is washed twice.
The filter plates are then measured in a beta counter (Microbeta, Wallac) with scintillator (Microscint 20, Packard).
“% of control” is determined from the “counts per minutes” values, and the IC-50 value of a compound is calculated therefrom.

SMILES	IC50
C=C(CC(C(=O)NCC)c1ccc2nc(N)nc(C(=O)N3Cc4ccccc4C3)c2c1)C(N)=O (centres unmarked) [Compound A50, 2-[2-Amino-4-(isoindoline-2-carbonyl)quinazolin-6-yl]-N′-ethyl-2-methylene-pentanediamide]	1 to 10 µM
CCCCC(C(=O)NCC)c1ccc2nc(N)nc(C(=O)N3Cc4ccccc4C3)c2c1 (centres unmarked) [Compound A44, 2-[2-Amino-4-(isoindoline-2-carbonyl)quinazolin-6-yl]-N-ethylhexanamide]	0.01 to 1 µM
NC(=O)Cc1ccc2nc(N)nc(C(=O)N3Cc4ccccc4C3)c2c1 [Compound A3, 2-[2-amino-4-(isoindoline-2-carbonyl)quinazolin-6-yl]acetamide]	1 to 10 µM
CC(C)CNC(=O)C1(c2ccc3nc(N)nc(C(=O)N4Cc5ccccc5C4)c3c2)CCC1 [Compound A34, 1-[2-Amino-4-(isoindoline-2-carbonyl)quinazolin-6-yl]-N-isobutylcyclobutanecarboxamide]	0.01 to 1 µM
C=C(CC(C(=O)O)c1ccc2nc(N)nc(C(=O)N3Cc4ccccc4C3)c2c1)C(N)=O (centres unmarked) [Compound A74]	1 to 10 µM
CCOC(=O)Cc1ccc2nc(N)nc(C(=O)N3Cc4ccccc4C3)c2c1 [Compound A1, Ethyl 2-[2-amino-4-(isoindoline-2-carbonyl)quinazolin-6-yl]acetate]	0.01 to 1 µM
Nc1nc(C(=O)N2Cc3ccccc3C2)c2cc(C3(C(=O)N4CCCC4)CC3)ccc2n1 [Compound A27, [2-Amino-6-[1-(pyrrolidine-1-carbonyl)cyclopropyl]quinazolin-4-yl]isoindolin-2-ylmethanone]	1 to 10 µM
CCCC(C(=O)NCC)c1ccc2nc(N)nc(C(=O)N3Cc4ccccc4C3)c2c1 (centres unmarked) [Compound A43, 2-[2-Amino-4-(isoindoline-2-carbonyl)quinazolin-6-yl]-N-ethylpentanamide]	0.01 to 1 µM
CCN(C)C(=O)Cc1ccc2nc(N)nc(C(=O)N3Cc4ccccc4C3)c2c1 [Compound A10, 2-[2-Amino-4-(isoindoline-2-carbonyl)quinazolin-6-yl]-N-ethyl-N-methylacetamide]	1 to 10 µM
CN1CCN(C(=O)Cc2ccc3nc(N)nc(C(=O)N4Cc5ccccc5C4)c3c2)CC1 [Compound A17, 2-[2-Amino-4-(isoindoline-2-carbonyl)quinazolin-6-yl]-1-(4-methylpiperazin-1-yl)ethanone]	1 to 10 µM
CC(C)(C)NC(=O)C1(c2ccc3nc(N)nc(C(=O)N4Cc5ccccc5C4)c3c2)CCC1 [Compound A29, 1-[2-Amino-4-(isoindoline-2-carbonyl)quinazolin-6-yl]-N-tert-butylcyclobutanecarboxamide]	0.01 to 1 µM
CCNC(=O)C1(c2ccc3nc(N)nc(C(=O)N4Cc5ccccc5C4)c3c2)CC1 [Compound A21, 1-[2-Amino-4-(isoindoline-2-carbonyl)quinazolin-6-yl]-N-ethylcyclopropanecarboxamide]	0.01 to 1 µM
Nc1nc(C(=O)N2Cc3ccccc3C2)c2cc(CC(=O)N3CCNCC3)ccc2n1 [Compound A18, 2-[2-amino-4-(isoindoline-2-carbonyl)quinazolin-6-yl]-1-piperazin-1-ylethanone]	> 10 µM
CCCC(C)(C(=O)NCC)c1ccc2nc(N)nc(C(=O)N3Cc4ccccc4C3)c2c1 (centres unmarked) [Compound A55, 2-[2-Amino-4-(isoindoline-2-carbonyl)quinazolin-6-yl]-N-ethyl-2-methylpentanamide]	0.01 to 1 µM

Second part, the compound after the results:

IC50	SMILES
0.01 to 1 µM	CCCNC(=O)C1(c2ccc3nc(N)nc(C(=O)N4Cc5ccccc5C4)c3c2)CCC1 [Compound A32, 1-[2-Amino-4-(isoindoline-2-carbonyl)quinazolin-6-yl]-N-propylcyclobutanecarboxamide]
1 to 10 µM	CNC(=O)Cc1ccc2nc(N)nc(C(=O)N3Cc4ccccc4C3)c2c1 [Compound A16, 2-[2-Amino-4-(isoindoline-2-carbonyl)quinazolin-6-yl]-N-methylacetamide]
1 to 10 µM	CCNC(=O)Cc1ccc2nc(N)nc(C(=O)N3Cc4ccccc4C3)c2c1 [Compound A6, 2-[2-amino-4-(isoindoline-2-carbonyl)quinazolin-6-yl]-N-ethylacetamide]
1 to 10 µM	CN(CCO)C(=O)Cc1ccc2nc(N)nc(C(=O)N3Cc4ccccc4C3)c2c1 [Compound A11, 2-[2-Amino-4-(isoindoline-2-carbonyl)quinazolin-6-yl]-N-(2-hydroxyethyl)-N-methylacetamide]
0.01 to 1 µM	CCNC(=O)C(C)(C)c1ccc2nc(N)nc(C(=O)N3Cc4ccccc4C3)c2c1 [Compound A36, 2-[2-Amino-4-(isoindoline-2-carbonyl)quinazolin-6-yl]-N-ethyl-2-methylpropanamide]
1 to 10 µM	CN(C)C(=O)Cc1ccc2nc(N)nc(C(=O)N3Cc4ccccc4C3)c2c1 [Compound A9, 2-[2-Amino-4-(isoindoline-2-carbonyl)quinazolin-6-yl]-N,N-dimethylacetamide]
